Like-named read-outs stand apart in the source and are kept apart here.
Legend:
[1] = target: T1, human A2a receptor subtype (Homo sapiens, UniProt P29274); assay: Adenosine 2a receptor subtype competition radioligand binding, [3H]CGS-21680, HEK293 membranes
T1 construct: purchased Receptor Biology (Beltsville, Md.) RB-HA2a; host or cells: HEK-293, stably expressing

[2] = target: T2, human A1 receptor subtype (Homo sapiens, UniProt P30542); assay: biochemical
T2 sequence (P30542 1-326): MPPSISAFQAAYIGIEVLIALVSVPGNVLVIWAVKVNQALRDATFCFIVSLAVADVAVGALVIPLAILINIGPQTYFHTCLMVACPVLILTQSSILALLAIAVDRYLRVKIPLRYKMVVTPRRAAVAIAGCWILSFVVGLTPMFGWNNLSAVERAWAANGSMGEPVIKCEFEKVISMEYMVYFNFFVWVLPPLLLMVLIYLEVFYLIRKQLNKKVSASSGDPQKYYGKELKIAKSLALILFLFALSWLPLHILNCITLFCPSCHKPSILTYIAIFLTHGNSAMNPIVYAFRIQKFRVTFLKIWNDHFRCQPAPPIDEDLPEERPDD

PDE4 (Human) = assay: PDE4 inhibition; format: biochemical
[3] = target: T3, human A3 receptor subtype (Homo sapiens, UniProt P0DMS8); assay: Adenosine 3 receptor competition radioligand binding, [125I]AB-MECA, HEK293 membranes
T3 construct: purchased Receptor Biology (Beltsville, Md.) RB-HA3; host or cells: HEK-293, stably expressing
T3 sequence (P0DMS8 1-318): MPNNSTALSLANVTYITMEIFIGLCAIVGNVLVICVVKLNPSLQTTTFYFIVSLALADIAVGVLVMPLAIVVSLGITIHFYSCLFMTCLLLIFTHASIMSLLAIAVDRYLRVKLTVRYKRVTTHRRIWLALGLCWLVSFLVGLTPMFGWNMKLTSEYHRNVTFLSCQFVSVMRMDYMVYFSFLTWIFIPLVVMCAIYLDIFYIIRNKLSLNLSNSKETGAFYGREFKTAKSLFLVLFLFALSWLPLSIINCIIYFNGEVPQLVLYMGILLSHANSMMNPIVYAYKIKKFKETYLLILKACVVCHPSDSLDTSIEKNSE

[4] = target: T4, human A2b receptor subtype (Homo sapiens, UniProt P29275); assay: Adenosine 2b receptor subtype competition radioligand binding, [3H]DPCPX, HEK293 membranes
T4 construct: purchased Receptor Biology (Beltsville, Md.) RB-HA2b; host or cells: HEK-293, stably expressing
T4 sequence (P29275 1-332): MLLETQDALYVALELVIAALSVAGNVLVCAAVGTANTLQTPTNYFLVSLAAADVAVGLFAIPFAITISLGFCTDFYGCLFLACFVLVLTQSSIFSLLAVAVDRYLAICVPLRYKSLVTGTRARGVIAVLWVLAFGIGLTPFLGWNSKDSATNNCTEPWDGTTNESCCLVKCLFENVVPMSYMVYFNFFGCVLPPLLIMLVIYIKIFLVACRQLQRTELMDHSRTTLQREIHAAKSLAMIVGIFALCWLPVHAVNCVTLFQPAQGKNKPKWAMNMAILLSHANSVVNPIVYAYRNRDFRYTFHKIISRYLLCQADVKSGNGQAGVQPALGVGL

hA3R = target: T5, hA3R (Homo sapiens, UniProt P0DMS8); assay: Displacement binding of [3H]CPX, yeast membranes expressing human A3 receptor; details: read-out: IC50 [nM] hA3R, 0.4 nM [3H]CPX
T5 sequence (P0DMS8 1-318): T3 sequence (P0DMS8 1-318)

[5] = target: T2, human A1 receptor subtype; details: for Ki: read-out: A1 Binding Ki, Tables 7-13, deazapurine analogues

T1 sequence (P29274 whole entry): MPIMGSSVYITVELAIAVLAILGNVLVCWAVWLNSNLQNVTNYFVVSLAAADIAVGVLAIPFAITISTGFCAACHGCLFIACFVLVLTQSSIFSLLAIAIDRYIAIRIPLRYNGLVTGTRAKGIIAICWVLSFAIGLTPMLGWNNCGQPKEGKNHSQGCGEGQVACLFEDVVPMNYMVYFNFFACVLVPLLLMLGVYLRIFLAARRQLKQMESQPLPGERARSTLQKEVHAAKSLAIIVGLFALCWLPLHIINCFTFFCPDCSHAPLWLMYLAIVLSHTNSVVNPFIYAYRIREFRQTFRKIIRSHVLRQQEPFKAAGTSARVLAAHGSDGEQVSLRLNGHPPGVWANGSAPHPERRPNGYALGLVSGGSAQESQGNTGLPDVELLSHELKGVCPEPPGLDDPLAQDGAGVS

| Ki ([1]; Table 6, read-out: Ki − A2A) [µM] | Ki [2] [µM] | Ki ([4]; Table 6, read-out: Ki − A2B) [nM] | SMILES | other results |
| --- | --- | --- | --- | --- |
| 0.432 | 0.0044 | 1460 | O[C@H]1CC[C@H](Nc2nc(-c3ccccc3)nc3[nH]ncc23)CC1 | PDE4 (Human) Inhibition at 10 μM (PDE4 (Human)): 89%; Ki ([3]; Table 6, read-out: Ki − A3): 664 nM |
| 1.53 | 0.0524 | 4210 | O[C@H]1CC[C@H](Nc2nc(-c3ccccc3)nc3[nH]nnc23)CC1 | – |
| 0.0191 | 0.0009 | 63.1 | NC(=O)[C@@H]1CCCN1c1nc(-c2ccccc2)nc2[nH]cnc12 | – |
| 0.0211 | 0.0123 | 168 | NC(=O)[C@H]1CCCN1c1nc(-c2ccccc2)nc2[nH]cnc12 | – |
| 0.0668 | 0.0006 | 97.4 | NC(=O)[C@@H]1CCCN1c1nc(-c2ccccc2)nc2[nH]ncc12 | PDE4 (Human) Inhibition at 10 μM (PDE4 (Human)): 34%; Ki ([3]; Table 6, read-out: Ki − A3): 261 nM |
| 0.243 | 0.0767 | 1480 | NC(=O)[C@H]1CCCN1c1nc(-c2ccccc2)nc2[nH]ncc12 | – |
| 0.0968 | 0.0015 | 69.3 | O[C@H]1CC[C@H](Nc2nc(-c3ccccc3)nc3[nH]cnc23)CC1 | PDE4 (Human) Inhibition at 10 μM (PDE4 (Human)): 79%; Ki ([3]; Table 6, read-out: Ki − A3): 174 nM |
| 5.54 | 0.0813 | 5560 | NC(=O)[C@@H]1CCCN1c1nc(-c2ccccc2)nc2[nH]nnc12 | – |
| 0.0248 | 0.0074 | 22 | CC(=O)NCCNc1nc(-c2ccccc2)nc2[nH]cnc12 | – |
| 0.0495 | 0.0114 | 32.1 | CC(=O)NCCNc1nc(-c2ccccc2)nc2[nH]ncc12 | – |

The remaining lines, values behind:

| SMILES | Ki ([1]; Table 6, read-out: Ki − A2A) [µM] | Ki [2] [µM] | Ki ([4]; Table 6, read-out: Ki − A2B) [nM] | other results |
| --- | --- | --- | --- | --- |
| O=c1nc2[nH]c3ccccc3nc-2c(=O)[nH]1 [Alloxazine] | – | – | – | IC50 (hA3R): 8220 nM |
| Cc1[nH]c2nc(-c3ccccc3)nc(NC3CCC(OC(=O)c4ccccc4)CC3)c2c1C (stereo not drawn) [Compound 606] | – | – | – | Ki [5]: 0.298 µM |
| Cc1[nH]c2nc(-c3ccccc3)nc(NC3CCC(OC(=O)c4ccccc4)CC3)c2c1C (stereo not drawn) [Compound 611] | – | – | – | Ki [5]: 0.786 µM |
| CC(=O)NCCNc1nc(-c2ccccc2)nc2[nH]c(C)c(C)c12 [Compound 1300] | – | – | – | Ki [1]: 0.018 to 0.0486 µM |
| Cc1[nH]c2nc(-c3ccccc3)nc(N[C@H]3CC[C@H](O)CC3)c2c1C [Compound 1304] | – | – | – | Ki ([3]; Table 14, read-out: Binding Ki (nM) A3): 21.5 nM; Ki ([4]; Table 14, read-out: Binding Ki (nM) A2b): 138 nM |
| CNC(=O)NCCCNc1nc(-c2ccccc2)nc2[nH]c(C)c(C)c12 [Compound 1310] | – | – | – | A2a, value printed as % in Ki column ([1]; Table 14): 76% |
| O[C@H]1CC[C@H](Nc2nc(-c3ccncc3)nc3[nH]ccc23)CC1 [Compound 1321] | – | – | – | A3, % activity @ 10 μM ([3]; Table 14, 10 μM): 54%^8 |
| O[C@H]1CC[C@H](Nc2nc(-c3ccccc3)nc3[nH]c(CN4CCOCC4)cc23)CC1 [Compound 1503] | – | – | – | Ki-A1 (Adenosine A1 Receptor Selective Compounds) ([5]; selectivity versus other three subtypes): * (at least 10 times more selective than other three subtypes.) |
